Experimental data from patent US20050197343A1, “Utilization of heteroarene carboxamide as dopamine-d3 ligands for the treatment of cns diseases” (priority 2002, published 2005).
Like-named read-outs stand apart in the source and are kept apart here. Each block holds one compound with its values, some of them ahead of it.

Assays:
α1 receptors = assay: competitive experiment with the α1 selective radio ligand [3H]Prazosin; conditions: read-out: Ki values α1 (footnote d); pα1; competitive experiment with [3H]Prazosin
human D4.4 receptor = target: T1, human D4.4 receptor (Homo sapiens, UniProt P21917); assay: radio ligand binding assay, CHO cell membrane homogenates, [3H]Spiperon, D4.4; conditions: for Ki: hD4.4, average of 2-9 experiments in triplicate
T1 construct: expressed in transfected cells; host or cells: CHO cells (membrane homogenates)
T1 sequence (P21917 1-419): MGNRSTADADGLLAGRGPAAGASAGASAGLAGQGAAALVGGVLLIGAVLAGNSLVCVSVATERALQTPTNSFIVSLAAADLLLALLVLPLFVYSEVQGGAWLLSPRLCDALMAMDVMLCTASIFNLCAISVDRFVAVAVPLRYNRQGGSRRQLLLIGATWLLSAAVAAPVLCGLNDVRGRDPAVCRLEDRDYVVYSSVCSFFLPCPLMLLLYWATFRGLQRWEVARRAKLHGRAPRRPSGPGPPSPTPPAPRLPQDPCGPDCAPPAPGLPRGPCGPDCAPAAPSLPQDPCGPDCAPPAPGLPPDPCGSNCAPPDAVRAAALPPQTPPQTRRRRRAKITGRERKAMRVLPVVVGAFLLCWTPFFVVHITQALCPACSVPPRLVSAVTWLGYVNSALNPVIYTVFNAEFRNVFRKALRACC
Method: (§1) The biological activities of the compounds of the invention were determined in radio ligand binding assays.

[1] = target: adrenergic receptor subtype α1; assay: radio ligand binding, pig cortex membranes, highly affine binding site on labelling with [3H]Ketanserin; conditions: read-out: Ki values α1 (footnote c); pα1; derived from the highly affine binding site on labelling with [3H]Ketanserin
D3 receptor = D3 receptor (Homo sapiens, UniProt P35462); assay: radio ligand binding assay, CHO cell membrane homogenates, [3H]Spiperon, D3; set-up: expressed in transfected cells; host or cells: CHO cells (membrane homogenates); conditions: for D3 selectivity D2long/D3 / D3 selectivity D2short/D3 / D3 selectivity D4.4/D3: ratio of Ki values
Chain of D3 receptor (P35462 whole entry): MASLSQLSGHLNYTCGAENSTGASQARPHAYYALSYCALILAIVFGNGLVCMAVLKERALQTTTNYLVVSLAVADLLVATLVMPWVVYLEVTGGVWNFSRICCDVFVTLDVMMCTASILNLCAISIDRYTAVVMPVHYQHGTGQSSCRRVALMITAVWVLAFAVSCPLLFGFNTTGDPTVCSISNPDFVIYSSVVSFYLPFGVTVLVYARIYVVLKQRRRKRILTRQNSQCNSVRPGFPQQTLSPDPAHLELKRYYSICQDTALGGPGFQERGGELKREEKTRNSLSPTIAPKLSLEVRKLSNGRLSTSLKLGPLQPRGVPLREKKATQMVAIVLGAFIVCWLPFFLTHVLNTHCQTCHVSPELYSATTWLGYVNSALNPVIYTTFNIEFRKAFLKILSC
Method: as §1

human D2short receptor = target: T2, human D2short receptor (Homo sapiens, UniProt P14416); assay: radio ligand binding assay, CHO cell membrane homogenates, [3H]Spiperon, D2short; conditions: hD2short; average of 2-9 experiments in triplicate
T2 construct: expressed in transfected cells; host or cells: CHO cells (membrane homogenates)
T2 sequence (P14416 1-414 isoform P14416-2): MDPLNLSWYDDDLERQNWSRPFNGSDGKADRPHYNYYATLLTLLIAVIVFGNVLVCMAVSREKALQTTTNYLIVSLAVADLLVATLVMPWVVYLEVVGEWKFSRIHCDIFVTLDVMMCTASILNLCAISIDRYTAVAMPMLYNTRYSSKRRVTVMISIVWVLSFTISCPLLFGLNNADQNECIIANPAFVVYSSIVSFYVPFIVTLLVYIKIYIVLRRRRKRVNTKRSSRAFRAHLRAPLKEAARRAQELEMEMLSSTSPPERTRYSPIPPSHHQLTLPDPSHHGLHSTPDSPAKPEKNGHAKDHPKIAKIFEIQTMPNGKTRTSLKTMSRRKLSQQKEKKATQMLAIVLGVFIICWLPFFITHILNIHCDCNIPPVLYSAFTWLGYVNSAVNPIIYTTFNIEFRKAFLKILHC
Method: as §1

D1 receptor = target: T3, D1 receptor (Sus scrofa, UniProt P50130); assay: radio ligand binding assay, D1 receptor, pig striatum membrane homogenates, [3H]SCH 23390; conditions: pD1; average of 2-9 experiments in triplicate
T3 construct: native membrane homogenates obtained from the striatum of a pig; from tissue; host or cells: pig striatum
T3 sequence (P50130 whole entry): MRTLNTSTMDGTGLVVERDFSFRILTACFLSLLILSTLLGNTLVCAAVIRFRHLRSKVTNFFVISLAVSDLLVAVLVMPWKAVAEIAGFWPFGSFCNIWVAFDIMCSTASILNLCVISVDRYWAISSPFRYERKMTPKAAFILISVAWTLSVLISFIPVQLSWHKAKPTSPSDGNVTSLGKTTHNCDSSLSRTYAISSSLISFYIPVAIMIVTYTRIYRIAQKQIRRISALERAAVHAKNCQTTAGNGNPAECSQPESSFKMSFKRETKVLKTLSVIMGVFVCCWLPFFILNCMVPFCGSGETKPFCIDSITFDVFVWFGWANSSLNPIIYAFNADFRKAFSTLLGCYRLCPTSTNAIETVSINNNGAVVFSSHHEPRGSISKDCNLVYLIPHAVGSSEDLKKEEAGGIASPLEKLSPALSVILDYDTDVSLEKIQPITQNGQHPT
Method: as §1

[2] = target: T4, serotonin receptor 5-HT1A (Sus scrofa, UniProt A0A4X1UTF5); assay: radio ligand binding, pig cortex membrane preparations, [3H]8-OH-DPAT
T4 sequence (A0A4X1UTF5 1-422): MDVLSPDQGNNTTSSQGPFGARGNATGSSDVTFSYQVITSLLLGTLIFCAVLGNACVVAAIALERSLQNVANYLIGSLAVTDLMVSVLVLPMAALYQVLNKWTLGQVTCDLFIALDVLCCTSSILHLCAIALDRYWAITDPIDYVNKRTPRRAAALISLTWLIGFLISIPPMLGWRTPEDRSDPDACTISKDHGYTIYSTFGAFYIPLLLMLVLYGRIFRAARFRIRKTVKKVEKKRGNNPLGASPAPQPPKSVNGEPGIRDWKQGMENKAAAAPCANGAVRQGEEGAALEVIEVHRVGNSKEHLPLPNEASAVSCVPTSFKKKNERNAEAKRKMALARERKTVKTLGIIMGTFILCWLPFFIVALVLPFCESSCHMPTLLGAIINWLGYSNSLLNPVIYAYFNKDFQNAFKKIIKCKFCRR

human D2long receptor = target: T5, human D2long receptor (Homo sapiens, UniProt P14416); assay: radio ligand binding assay, CHO cell membrane homogenates, [3H]Spiperon, D2long; conditions: hD2long; average of 2-9 experiments in triplicate
T5 construct: expressed in transfected cells; host or cells: CHO cells (membrane homogenates)
T5 sequence (P14416 whole entry): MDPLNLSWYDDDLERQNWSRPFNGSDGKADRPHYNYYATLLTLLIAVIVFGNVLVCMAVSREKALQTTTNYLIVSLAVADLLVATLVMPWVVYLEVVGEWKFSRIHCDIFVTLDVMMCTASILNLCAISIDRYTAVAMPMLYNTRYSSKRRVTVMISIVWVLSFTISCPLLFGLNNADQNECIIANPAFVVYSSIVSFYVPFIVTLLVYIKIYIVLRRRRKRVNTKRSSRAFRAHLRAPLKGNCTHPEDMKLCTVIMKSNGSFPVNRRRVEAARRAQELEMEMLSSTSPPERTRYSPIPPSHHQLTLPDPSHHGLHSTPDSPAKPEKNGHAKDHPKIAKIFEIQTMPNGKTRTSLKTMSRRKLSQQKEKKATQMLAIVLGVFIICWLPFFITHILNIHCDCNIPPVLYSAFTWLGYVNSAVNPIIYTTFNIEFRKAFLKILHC
Method: as §1

serotonin receptor 5-HT2 = target: T6, serotonin receptor 5-HT2 (Sus scrofa, UniProt P50129); assay: radio ligand binding, pig cortex membrane preparations, [3H]Ketanserin with 10 μM Prazosin; conditions: p5-HT2; simultaneous incubation with 10 μM of Prazosin
T6 construct: cortex membrane preparations of a pig; from tissue; host or cells: pig cortex
T6 sequence (P50129 whole entry): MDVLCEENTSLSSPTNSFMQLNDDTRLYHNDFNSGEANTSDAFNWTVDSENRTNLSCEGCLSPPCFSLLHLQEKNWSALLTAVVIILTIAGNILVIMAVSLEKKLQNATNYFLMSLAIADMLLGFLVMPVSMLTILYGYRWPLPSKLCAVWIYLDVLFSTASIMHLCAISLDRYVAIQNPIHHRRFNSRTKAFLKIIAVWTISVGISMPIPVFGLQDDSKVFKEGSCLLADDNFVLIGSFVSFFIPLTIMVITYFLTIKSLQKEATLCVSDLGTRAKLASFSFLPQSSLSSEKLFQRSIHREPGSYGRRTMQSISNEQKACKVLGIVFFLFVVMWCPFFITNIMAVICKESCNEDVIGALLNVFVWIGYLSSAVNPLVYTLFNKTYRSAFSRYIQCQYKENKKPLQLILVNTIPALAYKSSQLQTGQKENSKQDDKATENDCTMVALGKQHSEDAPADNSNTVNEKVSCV

[3] = hD3, average of 2-9 experiments in triplicate, read-out: Ki-values D3
[4] = read-out: Ki values 5-HT1A, p5-HT1A, [3H]8-OH-DPAT, average of 2 to 6 experiments

Compound: O=C(NCCCCN1CCN(c2cccc(Cl)c2Cl)CC1)c1cc2ccccc2s1 [Example 2, N-4-(4-(2,3-dichlorophenyl)piperazine-1-yl)butyl-2-benzo[b]thiophenylcarbamide]
Ki (α1 receptors): 370 nM

Compound: COc1ccccc1N1CCN(CCCCNC(=O)c2cc3ccccc3o2)CC1 [Example 3, N-4-(4-(2-methoxyphenyl)piperazine-1-yl)butyl-2-benzo[b]furanylcarbarnide]
Ki (α1 receptors): 3.3 nM
Ki (human D4.4 receptor): 30 nM
Ki [1]: 14 nM

Compound: O=C(NCCCCN1CCN(c2cccc(Cl)c2Cl)CC1)c1cc2ccccc2o1 [Example 4, N-4-(4-(2,3-dichlorophenyl)piperazine-1-yl)butyl-2-benzo[b]furanylcarbamide]
Ki (α1 receptors): 160 nM
Ki (D3 receptor; [3]): 1.2 nM

Compound: COc1ccccc1N1CCN(CCCCNC(=O)c2cc3cc(Br)ccc3o2)CC1 [Example 5, N-4-(4-(2-methoxyphenyl)piperazine-1-yl)butyl-5-brom-2-benzo[b]furanylcarbamide]
Ki (α1 receptors): 5.3 nM
Ki (D3 receptor; [3]): 0.69 nM
D3 selectivity D2long/D3 (D3 receptor): 140
D3 selectivity D2short/D3 (D3 receptor): 88
D3 selectivity D4.4/D3 (D3 receptor): 25
Ki (human D2short receptor): 61 nM
Ki (human D4.4 receptor): 17 nM
Ki (D1 receptor): 590 nM
Ki [2, 4]: 68 nM
Ki (human D2long receptor): 96 nM
Ki (serotonin receptor 5-HT2): 140 nM

Compound: O=C(NCCCCN1CCN(c2cccc(Cl)c2Cl)CC1)c1cc2cc(Br)ccc2o1 [Example 6, N-4-(4-(2,3-dichlorophenyl)piperazine-1-yl)butyl-5-bromo-2-benzo[b]furanylcarbarnide]
Ki (α1 receptors): 1300 nM
D3 affinity (in words) (D3 receptor): subnanomolar affinity
Ki (D3 receptor; [3]): 3.4 nM
D3 selectivity D2long/D3 (D3 receptor): 2900
D3 selectivity D2short/D3 (D3 receptor): 1400
D3 selectivity D4.4/D3 (D3 receptor): 910
Ki (human D2short receptor): 4800 nM
Ki (human D4.4 receptor): 3100 nM
Ki (D1 receptor): 2100 nM
Ki [2, 4]: 2500 nM
Ki (human D2long receptor): 10000 nM
Ki (serotonin receptor 5-HT2): 540 nM

Compound: COc1ccccc1N1CCN(CCCCNC(=O)c2cc3cc(C#N)ccc3o2)CC1 [Example 7, N-4-(4-(2-methoxyphenyl)piperazine-1-yl)butyl-5-cyano-2-benzo[b]furanylcarbamide]
Ki (α1 receptors): 11 nM
Ki (D3 receptor; [3]): 4.2 nM
Ki (human D2short receptor): 89 nM
Ki (human D4.4 receptor): 57 nM
Ki [1]: 8.2 nM
Ki [2]: 37 nM
Ki (human D2long receptor): 130 nM
Ki (serotonin receptor 5-HT2): 390 nM

Compound: COc1ccccc1N1CCN(CCCCNC(=O)c2cc3ccccc3[te]2)CC1 [Example 8, N-4-(4-(2-methoxyphenyl)piperazine-1-yl)butyl-2-benzo[b]tellurophenylcarbamide]
Ki (α1 receptors): 3.5 nM
Ki (D3 receptor): 0.72 nM
Ki [2]: 69 nM
Ki (serotonin receptor 5-HT2): 420 nM

Compound: O=C(NCCCCN1CCN(c2cccc(Cl)c2Cl)CC1)c1cc2ccccc2[nH]1 [Example 10, N-4-(4-(2,3-dichlorophenyl)piperazine-1-yl)butyl-2-indolylcarbamide]
Ki (α1 receptors): 220 nM
D3 affinity (in words) (D3 receptor): subnanomolar affinity
Ki (D3 receptor; [3]): 0.23 to 0.57 nM
Ki [2]: 610 nM

Compound: COc1ccccc1N1CCN(CCCCNC(=O)c2cc3cc(C#N)ccc3[nH]2)CC1 [Example 11, N-4-(4-(2-methoxyphenyl)piperazine-1-yl)butyl-5-cyan-2-indolylcarbamide]
Ki (α1 receptors): 5.9 nM
Ki (D3 receptor; [3]): 0.23 to 0.57 nM
Ki [1]: 24 nM
Ki [2]: 83 nM
Ki (serotonin receptor 5-HT2): 440 nM

Compound: COc1ccccc1N1CCN(CCCCNC(=O)c2cc3cc(Br)ccc3[nH]2)CC1 [Example 12, N-4-(4-(2-methoxyphenyl)piperazine-1-yl)butyl-5-bromo-2-indolylcarbamide]
Ki (α1 receptors): 6.4 nM
Ki (D3 receptor; [3]): 0.23 to 0.57 nM
Ki [2]: 440 nM
Ki (serotonin receptor 5-HT2): 280 nM

Compound: COc1ccccc1N1CCN(CCCCNC(=O)c2cc3ccc(C#N)cc3[nH]2)CC1 [Example 13, N-4-(4-(2-methoxyphenyl)piperazine-1-yl)butyl-6-cyan-2-indolylcarbamide]
Ki (α1 receptors): 4.3 nM
Ki (D3 receptor; [3]): 0.23 to 0.57 nM
Ki [2]: 47 nM
Ki (serotonin receptor 5-HT2): 220 nM

Compound: O=C(NCCCCN1CCN(c2cccc(Cl)c2Cl)CC1)c1cc2cc(Br)ccc2[nH]1 [Example 14, N-4-(4-(2,3-dichlorophenyl)piperazine-1-yl)butyl-5-brom-2-indolylcarbamide]
Ki (α1 receptors): 500 nM
Ki [2, 4]: 1600 nM
Ki (serotonin receptor 5-HT2): 690 nM

Compound: N#Cc1ccc2cc(C(=O)NCCCCN3CCN(c4cccc(Cl)c4Cl)CC3)[nH]c2c1 [Example 15, N-4-(4-(2,3-dichlorophenyl)piperazine-1-yl)butyl-6-cyano-2-indolylcarbamide]
Ki (α1 receptors): 2000 nM
Ki [2, 4]: 390 nM
Ki (serotonin receptor 5-HT2): 320 nM

Compound: COc1ccccc1N1CCN(CCCCNC(=O)c2cc3cc(C#N)ccc3s2)CC1 [Example 18, N-4-(4-(2-methoxyphenyl)piperazine-1-yl)butyl-5-cyano-2-benzo[b]thiophenylcarbamide]
Ki (α1 receptors): 2.9 nM
Ki [2]: 54 nM
Ki (serotonin receptor 5-HT2): 580 nM

Compound: N#Cc1ccc2sc(C(=O)NCCCCN3CCN(c4cccc(Cl)c4Cl)CC3)cc2c1 [Example 19, N-4-(4-(2,3-dichlorophenyl)piperazine-1-yl)butyl-5-cyan-2-benzo[b]thiophenylcarbamide]
Ki (α1 receptors): 230 nM
Ki [2, 4]: 190 nM
Ki (serotonin receptor 5-HT2): 280 nM

Compound: COc1ccccc1N1CCN(CCCCNC(=O)c2cc3ccc(C#N)cc3s2)CC1 [Example 20, N-4-(4-(2-methoxyphenyl)piperazine-1-yl)butyl-6-cyano-2-benzo[b]thiophenylcarbamide]
Ki (α1 receptors): 8.3 nM
Ki (D3 receptor; [3]): 0.23 to 0.57 nM
Ki [2]: 71 nM
Ki (serotonin receptor 5-HT2): 660 nM

Compound: N#Cc1ccc2cc(C(=O)NCCCCN3CCN(c4cccc(Cl)c4Cl)CC3)sc2c1 [Example 21, N-4-(4-(2,3-dichlorophenyl)piperazine-1-yl)butyl-6-cyano-2-benzo[b]thiophenylcarbamide]
Ki (α1 receptors): 45 nM
Ki (D3 receptor; [3]): 0.23 to 0.57 nM
Ki [2]: 110 nM
Ki (serotonin receptor 5-HT2): 290 nM

Compound: COc1ccccc1N1CCN(CCCCNC(=O)c2cc3cc(Br)ccc3s2)CC1 [Example 22, N-4-(4-(2-methoxyphenyl)piperazine-1-yl)butyl-5-brom-2-benzo[b]thiophenylcarbamide]
Ki (α1 receptors): 2.5 nM
Ki [2, 4]: 180 nM
Ki (serotonin receptor 5-HT2): 760 nM

Compound: O=C(NCCCCN1CCN(c2cccc(Cl)c2Cl)CC1)c1cc2cc(Br)ccc2s1 [Example 23, N-4-(4-(2,3-dichlorophenyl)piperazine-1-yl)butyl-5-brom-2-benzo[b]thiophenylcarbamide]
Ki (α1 receptors): 320 nM
Ki [2, 4]: 430 nM
Ki (serotonin receptor 5-HT2): 14000 nM

Ki (α1 receptors): 7.3 nM
Ki [1]: 11 nM
Ki [2]: 32 nM
Ki (serotonin receptor 5-HT2): 420 nM
Compound: COc1ccccc1N1CCN(CCCCNC(=O)c2cc3ccccc3[nH]2)CC1 [Example 24, N-4-(4-(2-methoxyphenyl)piperazine-1-yl)butyl-2-indolylcarbamide]

Compound: N#Cc1ccc2[nH]c(C(=O)NCCCCN3CCN(c4cccc(Cl)c4Cl)CC3)cc2c1 [Example 25, N-4-(4-(2,3-dichlorophenyl)piperazine-1-yl)butyl-5-cyano-2-indolylcarbamide]
Ki (α1 receptors): 220 nM
Ki [2, 4]: 190 nM
Ki (serotonin receptor 5-HT2): 220 nM

Compound: N-4-(4-(2, 3-dichlorophenyl)piperazine-1 -yl)butyl-2-ferrocenylcarbamide [Example 17]
Ki (α1 receptors): 73 nM
Ki (D3 receptor; [3]): 0.47 nM
D4 affinity (in words) (human D4.4 receptor): high D4 affinity
Ki (human D4.4 receptor): 0.63 nM
Ki [2, 4]: 27 nM
Ki (serotonin receptor 5-HT2): 250 nM

Compound: N-4-(4-(2-methoxyphenyl)piperazine-1 -yl)butyl-2-ferrocenylcarbamide [Example 16]
Ki (α1 receptors): 30 nM
D4 affinity (in words) (human D4.4 receptor): high D4 affinity
Ki [2, 4]: 0.6 nM
Ki (serotonin receptor 5-HT2): 500 nM
